# In patent US10183015B2, “Heterocyclic compounds and methods of use” (Medivation Technologies LLC, priority 2015, dated 2019):
# “And” between values parts separate entries of the source, which are not always exact repeats. Identical values can stand only once.
# Experiments:
# Assay type in all cases: in vivo
# [1] = tested on: FAS; test: Short-term Paigen-diet NASH mouse model: hepatic FAS gene expression (RT-qPCR); conditions: FAS relative expression to vehicle group, 21 days
# Description: (§1) To investigate whether Compound #37 prevents the development of pathology associated with NASH and steatosis in an acute exploratory disease model, a study was conducted using a diet-induced acute liver steatosis model in mice. As described below, in this study, C57BL/6J mice were initiated on the Paigen diet and simultaneously treated with Compound #37 (5, 20, and 40 mg/kg/day) or vehicle control (20% HPβCD 10 mL/kg/day) by oral gavage for 21 days.
# (§2) After acclimation, 8-week old male C57Bl/6J mice (Charles River) weighing about 25 g were randomized in 4 groups according their body weight and treated once daily around noon by oral gavage with vehicle, or Compound #37 at various for 21 days as follows: Group 1: vehicle-20% (2-hydroxypropyl)-β-cyclodextrin (HP-β-CD) (n=10); Group 2: Compound #37, 5 mg/kg (n=10) Group 3: Compound #37, 20 mg/kg (n=10) Group 4: Compound #37, 40 mg/kg (n=10). During the treatment period, body weight and food intake (measured over 24h) were measured 3 times per week and once a week, respectively. During the acclimation, all mice were fed a standard diet (Special Diets Services RM1 (E), product no. 801492) and tap water ad libitum. After the acclimation period, mice were fed until the end of the experiment with a 60% high fat Paigen diet (60 kcal % fat, 1.25% cholesterol, and 0.5% cholate; D11061901, Research Diet) and tap water ad libitum.
# (§3) Gene expression analysis. Hepatic expression levels of genes involved in lipid metabolism (FAS, SREBP1, ACC1, SCD1), cholesterol metabolism (HMG-CoAR, LDLR), SREBP proteolysis (SCAP, INSIG1), ER stress (PERK), oxidative stress (NRF2), inflammation (MCP-1), and fibrosis (collagen 1α1) were quantified by RTqPCR. Expression level was normalized to 18S gene expression and relative expression to vehicle group was calculated with the […] method.
# [2] = tested on: SCD1; test: Short-term Paigen-diet NASH mouse model: hepatic SCD1 gene expression (RT-qPCR); conditions: SCD1 relative expression to vehicle group, 21 days
# Description: as §1, §2, §3
# [3] = tested on: HMGCoA; test: Short-term Paigen-diet NASH mouse model: hepatic HMGCoA (HMG-CoAR) gene expression (RT-qPCR); conditions: liver; for DDct: HMGCoA Dct relative to vehicle mean; for Dct: HMGCoA minus 18S; for 2DDct: HMGCoA relative expression to vehicle group, normalized to 18S; for HMGCoA: raw RT-qPCR value
# Description: as §1, §2, §3
# [4] = tested on: MCP-1; test: DIN mouse model: hepatic MCP-1 levels; conditions: 20 mg/kg; for MCP1: hepatic
# Description: (§4) Male C57Bl/6J mice (8 weeks old) were housed in enriched ventilated cages (31×12.5×12.7 cm) throughout the experimental phase. Animals' cages litters were changed at least once a week. Animal were housed 5 per cage on inverted 12-hour light cycle (at 09:00 am lights off), 22±2° C. and 55±10% relative humidity. The acclimation period was 20 days. During the acclimation period, all mice were fed a standard diet (RM1 (E) 801492, SDS) and tap water ad libitum. After the acclimation period, mice were fed with the DIN diet (60% fat, cholesterol enriched) and fructose-enriched tap water ad libitum until the end of the experiment.
# (§5) At 6 weeks of diet, mice were 4-hour fasted (09:00 am to 1:00 pm) and blood (150 μl/EDTA) was collected at 01:00 pm by retro-orbital bleeding under isoflurane anesthesia. Mice were then allocated in 2 homogenous groups (n=12/group) according to their plasma levels of ALT (average levels: 685U/L), AST (average levels: 627U/L) and HOMA-IR index (average value: 4.7), into 2 homogenous groups (see values at day 0 in Tables 15A and 15B ALT/AST and Tables 16A and 16B for HOMA-IR). Mice were then treated once daily by oral gavage with vehicle (Group 1) or Compound #37 at 20 mg/kg (Group 2) for 70 days.
# [5] = tested on: diet-induced NASH obese insulin resistant mice; test: DIN mouse model: NAS scores; set-up: total / steatosis / inflammation / fibrosis / hepatocyte ballooning: scale not given here
# Description: NAFLD score analysis. A 0.5 cm^3 piece of liver was fixed in 10% formalin for 48-72h, stored in ethanol 70° at 4° C., and processed for eosin/hematoxylin staining and NAFLD score analysis. One section (thickness 3-5 μm) per block was deposited on Superfrost+slides for hematoxylin-eosin staining. Individual slides having a single hepatic lobe section stained with H&E were digitized using a Nanozoomer from Hamamatsu. Sections were evaluated with knowledge of groups. Each section was evaluated and individually scored. A NAFLD scoring system (NAS) adapted from Kleiner et al. (Hepatology 41, 1313-21, 2005), Wu et al. (BMC Vet. Res. 10, 162, 2014), and Lee et al. (J. Lipid Res. 48, 1885-96, 2007). A total of four variables were qualitatively assessed and ranked with a score: (1) hepatocellular steatosis, (2) liver inflammation, (3) lobular fibrosis, and (4) hepatocyte ballooning.
# as §4, §5
# Each section was evaluated and individually scored using the modified NAFLD scoring system described above.
# [6] = 5 mg/kg, individual animals, 5 mg/kg
# [7] = 20 mg/kg, individual animals, 20 mg/kg
# [8] = Compound #37 5 mg/kg, group mean, n=10
# [9] = Compound #37 5 mg/kg, individual animals, 5 mg/kg
# [10] = Compound #37 20 mg/kg, group mean, n=6
# [11] = Compound #37 20 mg/kg, individual animals, 20 mg/kg
# [12] = NAS score, 20 mg/kg group, mean, n 11
smiles,measurement,setting,value
"CC(C)Cc1cc(-c2nc(-c3ccc(NS(=O)(=O)C(F)(F)F)cc3Cl)cs2)ccn1 [Compound 37, N-(3-chloro-4-(2-(2-isobutylpyridin-4-yl)thiazol-4-yl)phenyl)-1,1,1-trifluoromethanesulfonamide]",2DDct,"[1]; 5 mg/kg, group mean",1.12
same,2DDct,[1]; [6],2.2 and 1.54 and 1.55 and 2.34 and 0.68 and 0.39 and 0.91 and 0.65 and 0.33 and 0.59
same,2DDct,"[1]; 20 mg/kg, group mean",1.18
same,2DDct,[1]; [7],1.48 and 0.56 and 0.63 and 1.65 and 0.9 and 1.88
same,2DDct,"[2]; 5 mg/kg, group mean",1.05
same,2DDct,[2]; [6],2.96 and 0.99 and 0.66 and 2.02 and 0.77 and 0.22 and 0.93 and 0.76 and 0.6 and 0.59
same,2DDct,"[2]; 20 mg/kg, group mean",1.18
same,2DDct,[2]; [7],0.98 and 0.47 (2×) and 0.88 and 2.28 and 2
same,DDct,[3]; [8],0.21
same,DDct,[3]; [9],−0.39 and 0.32 and 0.09 and −0.08 and 0.87 and 0.63 and −0.03 and 0.10 and 0.35 and 0.20
same,DDct,[3]; [10],0.33
same,DDct,[3]; [11],0.57 and 1.06 and 0.58 and −0.40 and 0.77 and −0.64
same,Dct,[3]; [8],13.1
same,Dct,[3]; [9],12.48 and 13.19 and 12.96 and 12.79 and 13.74 and 13.5 and 12.84 and 12.97 and 13.22 and 13.07
same,Dct,[3]; [10],13.2
same,Dct,[3]; [11],13.44 and 13.93 and 13.45 and 12.47 and 13.64 and 12.23
same,2DDct,[3]; [8],0.89
same,2DDct,[3]; [9],1.31 and 0.80 and 0.94 and 1.05 and 0.55 and 0.64 and 1.02 and 0.93 and 0.78 and 0.87
same,2DDct,[3]; [10],0.88
same,2DDct,[3]; [11],0.67 (2×) and 0.48 and 1.32 and 0.58 and 1.55
same,HMGCoA,[3]; [8],25.3
same,HMGCoA,[3]; [9],25.94 and 26.3 and 24.57 and 26.14 and 25.77 and 26.85 and 24.44 and 24.76 and 24.36 and 24.19
same,HMGCoA,[3]; [10],25.4
same,HMGCoA,[3]; [11],26.35 and 26.22 and 25.65 and 25.5 and 25.13 and 23.49
same,Hepatic MCP-1 levels reduction,"[4]; 70 days, p<0.001 vs. vehicle",70%
same,MCP1,"[4]; group mean, n 11",1.7 pg/mg liver
same,MCP1,[4]; individual animals,1.34 pg/mg liver and 1.53 pg/mg liver and 0.60 pg/mg liver and 2.54 pg/mg liver and 1.76 pg/mg liver and 1.72 pg/mg liver and 1.42 pg/mg liver and 1.21 pg/mg liver and 1.78 pg/mg liver and 1.90 pg/mg liver and 2.59 pg/mg liver
same,inflammation score increase,"[5]; 20 mg/kg, 70 days, p<0.05 vs. vehicle",81%
same,fibrosis score reduction,"[5]; 20 mg/kg, 70 days, p=0.055 vs. vehicle",45%
same,total,"[5]; NAS score, 20 mg/kg group, individual animal, 20 mg/kg",7 and 8 and 3 (2×) and 5 (2×) and 6 (4×) and 4
same,fibrosis,[5]; [12],0.64
same,hepatocyte ballooning,[5]; [12],1.91
same,inflammation,[5]; [12],0.91
same,steatosis,[5]; [12],1.91
same,total,[5]; [12],5.36
